Source: ChEMBL document CHEMBL1909046, “DrugMatrix in vitro pharmacology data”

Experiments:
[1] = target: Epidermal growth factor receptor (Homo sapiens, UniProt P00533); experiment: DRUGMATRIX: Protein Tyrosine Kinase, EGF Receptor enzyme inhibition (substrate: Poly(Glu:Tyr)); assay type: cell-based, Insect cells; conditions: insect cells; Not Active = under 50% inhibition at 10 µM
[2] = target: Cytochrome P450 2C9 (Homo sapiens, UniProt P11712); conditions: bti-tn-5b1-4; note: in other assays of this panel Not Active means under 50% inhibition at 10 µM
[3] = target: Delta-type opioid receptor (Homo sapiens, UniProt P41143); assay type: cell membranes, HEK293, Membrane; conditions: hek293; note: in other assays of this panel Not Active means under 50% inhibition at 10 µM
[4] = DRUGMATRIX: Leukotriene, BLT (LTB4) radioligand binding (ligand: [3H]LTB4); assay type: cell membranes, Membrane; conditions: u-937; Not Active = under 50% inhibition at 10 µM
[5] = target: Mitogen-activated protein kinase 14 (Homo sapiens, UniProt Q16539); parameters: species or system Escherichia coli;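 note: inhibition of p38alpha enzyme activity in a biochemical kinase assay, with myelin basic protein serving as substrate; in other assays of this panel Not Active means under 50% inhibition at 10 µM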
[6] = target: T1, Leukotriene C4 synthase (Cavia porcellus, UniProt A6XA80); assay type: tissue-based, Lung;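 note: enzyme inhibition assay of leukotriene C4 synthase, using LTA4 as the substrate; in other assays of this panel Not Active means under 50% inhibition at 10 µM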
T1 sequence (A6XA80 whole entry): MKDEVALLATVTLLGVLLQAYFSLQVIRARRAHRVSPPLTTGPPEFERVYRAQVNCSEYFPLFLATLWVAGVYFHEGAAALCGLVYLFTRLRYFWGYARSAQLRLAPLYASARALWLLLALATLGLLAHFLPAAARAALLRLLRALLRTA

[7] = target: T2, Muscarinic acetylcholine receptor M4 (Homo sapiens, UniProt P08173); assay type: cell membranes, CHO-K1, Membrane; conditions: cho-k1; note: in other assays of this panel Not Active means under 50% inhibition at 10 µM
T2 sequence (P08173 whole entry): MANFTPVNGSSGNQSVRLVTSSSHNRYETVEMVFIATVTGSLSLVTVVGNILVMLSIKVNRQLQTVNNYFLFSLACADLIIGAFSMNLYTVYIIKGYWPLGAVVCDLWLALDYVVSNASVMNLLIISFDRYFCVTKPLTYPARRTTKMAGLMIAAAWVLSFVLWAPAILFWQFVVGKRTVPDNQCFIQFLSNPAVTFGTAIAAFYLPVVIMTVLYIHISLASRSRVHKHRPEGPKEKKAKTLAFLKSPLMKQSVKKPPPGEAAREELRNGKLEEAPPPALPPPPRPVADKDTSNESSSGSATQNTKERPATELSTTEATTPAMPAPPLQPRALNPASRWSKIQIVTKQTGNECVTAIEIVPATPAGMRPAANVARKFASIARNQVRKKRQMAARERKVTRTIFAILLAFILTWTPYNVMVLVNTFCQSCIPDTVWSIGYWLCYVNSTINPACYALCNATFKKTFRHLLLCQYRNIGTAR

[8] = target: T3, Thromboxane-A synthase (Homo sapiens, UniProt P24557); experiment: biochemical; assay type: tissue-based, Platelet; conditions: platelet
T3 sequence (P24557 whole entry): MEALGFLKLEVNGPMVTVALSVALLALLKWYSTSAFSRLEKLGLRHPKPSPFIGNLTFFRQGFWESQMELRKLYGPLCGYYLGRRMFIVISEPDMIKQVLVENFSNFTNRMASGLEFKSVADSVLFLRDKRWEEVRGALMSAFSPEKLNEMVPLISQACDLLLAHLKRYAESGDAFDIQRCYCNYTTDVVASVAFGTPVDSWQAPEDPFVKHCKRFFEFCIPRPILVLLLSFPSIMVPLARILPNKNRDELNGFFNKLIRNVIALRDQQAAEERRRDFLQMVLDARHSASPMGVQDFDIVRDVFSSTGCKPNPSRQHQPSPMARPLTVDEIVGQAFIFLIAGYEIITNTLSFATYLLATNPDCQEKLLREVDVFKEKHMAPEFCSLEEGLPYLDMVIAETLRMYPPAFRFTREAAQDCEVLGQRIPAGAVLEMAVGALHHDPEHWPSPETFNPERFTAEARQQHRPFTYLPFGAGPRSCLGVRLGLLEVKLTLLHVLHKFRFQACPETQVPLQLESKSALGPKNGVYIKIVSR

Cytochrome P450 2C9, sequence (P11712 whole entry): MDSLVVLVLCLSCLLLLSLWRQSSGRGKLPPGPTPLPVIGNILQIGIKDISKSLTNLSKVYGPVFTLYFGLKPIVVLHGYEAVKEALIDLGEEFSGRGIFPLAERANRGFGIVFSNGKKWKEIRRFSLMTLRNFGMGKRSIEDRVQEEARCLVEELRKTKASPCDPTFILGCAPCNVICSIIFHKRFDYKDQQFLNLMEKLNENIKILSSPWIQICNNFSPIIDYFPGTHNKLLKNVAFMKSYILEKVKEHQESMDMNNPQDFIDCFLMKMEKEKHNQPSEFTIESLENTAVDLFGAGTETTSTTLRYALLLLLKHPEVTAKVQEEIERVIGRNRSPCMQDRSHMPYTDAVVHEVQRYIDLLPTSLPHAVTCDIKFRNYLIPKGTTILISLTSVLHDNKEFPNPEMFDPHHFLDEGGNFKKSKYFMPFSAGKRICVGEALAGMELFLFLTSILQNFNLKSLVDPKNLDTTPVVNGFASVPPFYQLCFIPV
Mitogen-activated protein kinase 14, sequence (Q16539 whole entry): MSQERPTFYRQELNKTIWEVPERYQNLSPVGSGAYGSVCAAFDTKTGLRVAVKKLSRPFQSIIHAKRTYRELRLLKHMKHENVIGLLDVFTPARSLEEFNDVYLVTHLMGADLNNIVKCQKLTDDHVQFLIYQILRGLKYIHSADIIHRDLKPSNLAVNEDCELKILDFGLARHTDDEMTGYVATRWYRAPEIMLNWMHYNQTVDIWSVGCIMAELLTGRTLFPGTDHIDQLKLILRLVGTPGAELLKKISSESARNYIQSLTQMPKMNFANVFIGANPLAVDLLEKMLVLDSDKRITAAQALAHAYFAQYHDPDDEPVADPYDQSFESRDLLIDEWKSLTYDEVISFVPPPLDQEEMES
Delta-type opioid receptor, sequence (P41143 whole entry): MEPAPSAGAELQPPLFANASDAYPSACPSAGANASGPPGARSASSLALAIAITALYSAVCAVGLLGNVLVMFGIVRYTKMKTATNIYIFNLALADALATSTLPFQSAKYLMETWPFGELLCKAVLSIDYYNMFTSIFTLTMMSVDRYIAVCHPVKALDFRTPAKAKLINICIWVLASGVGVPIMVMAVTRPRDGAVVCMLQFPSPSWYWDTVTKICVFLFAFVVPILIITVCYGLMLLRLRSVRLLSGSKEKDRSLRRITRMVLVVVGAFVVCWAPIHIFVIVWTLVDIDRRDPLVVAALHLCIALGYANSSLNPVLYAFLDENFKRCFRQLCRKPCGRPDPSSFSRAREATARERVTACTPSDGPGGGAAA
Epidermal growth factor receptor, sequence (P00533 whole entry): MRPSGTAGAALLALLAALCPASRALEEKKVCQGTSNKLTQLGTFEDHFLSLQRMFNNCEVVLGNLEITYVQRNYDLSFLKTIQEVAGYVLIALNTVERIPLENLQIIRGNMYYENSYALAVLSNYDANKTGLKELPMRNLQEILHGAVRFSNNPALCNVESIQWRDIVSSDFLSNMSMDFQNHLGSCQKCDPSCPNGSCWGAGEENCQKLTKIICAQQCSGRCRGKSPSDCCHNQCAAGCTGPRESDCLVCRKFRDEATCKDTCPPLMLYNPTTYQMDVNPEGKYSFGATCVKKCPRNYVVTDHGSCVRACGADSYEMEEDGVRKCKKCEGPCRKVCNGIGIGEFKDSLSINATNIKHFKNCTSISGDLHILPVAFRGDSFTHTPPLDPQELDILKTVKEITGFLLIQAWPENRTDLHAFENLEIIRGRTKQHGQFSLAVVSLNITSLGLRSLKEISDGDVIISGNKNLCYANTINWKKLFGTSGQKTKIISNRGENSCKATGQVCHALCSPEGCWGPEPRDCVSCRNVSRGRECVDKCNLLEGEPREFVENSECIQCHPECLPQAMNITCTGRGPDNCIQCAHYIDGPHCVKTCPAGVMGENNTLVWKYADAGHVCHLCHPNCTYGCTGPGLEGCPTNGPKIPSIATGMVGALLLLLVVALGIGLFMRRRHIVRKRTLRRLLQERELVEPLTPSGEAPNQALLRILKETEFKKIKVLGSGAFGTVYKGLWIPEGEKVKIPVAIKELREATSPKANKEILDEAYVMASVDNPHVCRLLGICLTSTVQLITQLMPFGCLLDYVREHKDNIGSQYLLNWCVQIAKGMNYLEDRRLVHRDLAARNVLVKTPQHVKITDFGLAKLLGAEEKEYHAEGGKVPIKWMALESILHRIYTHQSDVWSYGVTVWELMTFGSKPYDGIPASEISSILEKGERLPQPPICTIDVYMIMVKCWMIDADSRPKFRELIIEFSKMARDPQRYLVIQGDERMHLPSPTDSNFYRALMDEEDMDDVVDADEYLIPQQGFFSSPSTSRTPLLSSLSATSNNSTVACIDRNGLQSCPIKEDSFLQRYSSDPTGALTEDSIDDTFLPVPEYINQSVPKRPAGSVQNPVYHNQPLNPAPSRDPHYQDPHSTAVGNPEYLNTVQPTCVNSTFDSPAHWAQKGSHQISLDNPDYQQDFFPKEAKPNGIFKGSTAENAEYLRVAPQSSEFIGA

CCn1cc(C(=O)O)c(=O)c2cc(F)c(N3CCNCC3)nc21 [ENOXACIN]
Not Active: IC50 [1] | IC50 [2] | Ki [2] | IC50 [3] | IC50 [4] | Ki [4] | IC50 [5] | IC50 [6] | IC50 [7] | IC50 [8]

CCC(=O)O[C@H]1[C@H](O[C@@H]2[C@@H](C)[C@H](O[C@H]3C[C@@](C)(OC)[C@@H](O)[C@H](C)O3)[C@@H](C)C(=O)O[C@H](CC)[C@@](C)(O)[C@H](O)[C@@H](C)C(=O)[C@H](C)C[C@@]2(C)O)O[C@H](C)C[C@@H]1N(C)C [ERYTHROMYCIN PROPIONATE]
Not Active: IC50 [1] | IC50 [2] | Ki [2] | IC50 [3] | IC50 [4] | Ki [4] | IC50 [5] | IC50 [6] | IC50 [7] | IC50 [8]

C=C(CC)C(=O)c1ccc(OCC(=O)O)c(Cl)c1Cl [ETHACRYNIC ACID]
Not Active: IC50 [1] | IC50 [2] | Ki [2] | IC50 [3] | IC50 [4] | Ki [4] | IC50 [5] | IC50 [6] | IC50 [7] | IC50 [8]

C#C[C@]1(O)CC[C@H]2[C@@H]3CCc4cc(O)ccc4[C@H]3CC[C@@]21C [ETHINYL ESTRADIOL]
Not Active: IC50 [1] | IC50 [2] | Ki [2] | IC50 [3] | IC50 [4] | Ki [4] | IC50 [5] | IC50 [6] | IC50 [7] | IC50 [8]

OCCO [ETHYLENE GLYCOL]
Not Active: IC50 [1] | IC50 [2] | Ki [2] | IC50 [3] | IC50 [4] | Ki [4] | IC50 [5] | IC50 [6] | IC50 [7] | IC50 [8]

CC(=O)OCC(CCn1cnc2cnc(N)nc21)COC(C)=O [FAMCICLOVIR]
Not Active: IC50 [1] | IC50 [2] | Ki [2] | IC50 [3] | IC50 [4] | Ki [4] | IC50 [5] | IC50 [6] | IC50 [7] | IC50 [8]

O=C(O)Cc1ccc(-c2ccccc2)cc1 [FELBINAC]
Not Active: IC50 [1] | IC50 [2] | Ki [2] | IC50 [3] | IC50 [4] | Ki [4] | IC50 [5] | IC50 [6] | IC50 [7] | IC50 [8]

CC(C(=O)O)c1ccc(-c2ccccc2)c(F)c1 (stereo not given) [FLURBIPROFEN]
Not Active: IC50 [1] | IC50 [2] | Ki [2] | IC50 [3] | IC50 [4] | Ki [4] | IC50 [5] | IC50 [6] | IC50 [7] | IC50 [8]

NC[C@@H]1O[C@H](O[C@H]2[C@@H](O)[C@H](O[C@@H]3[C@@H](O)[C@H](N)C[C@H](N)[C@H]3O[C@H]3O[C@H](CN)[C@@H](O)[C@H](O)[C@H]3N)O[C@@H]2CO)[C@H](N)[C@@H](O)[C@@H]1O [FRAMYCETIN]
Not Active: IC50 [1] | IC50 [2] | Ki [2] | IC50 [3] | IC50 [4] | Ki [4] | IC50 [5] | IC50 [6] | IC50 [7] | IC50 [8]

C[C@H]([C@](O)(Cn1cncn1)c1ccc(F)cc1F)S(C)(=O)=O [GENACONAZOLE]
Not Active: IC50 [1] | IC50 [2] | Ki [2] | IC50 [3] | IC50 [4] | Ki [4] | IC50 [5] | IC50 [6] | IC50 [7] | IC50 [8]

Cc1c(F)c(N2CCNC(C)C2)cc2c1c(=O)c(C(=O)O)cn2C1CC1 (stereo not given) [GREPAFLOXACIN]
Not Active: IC50 [1] | IC50 [2] | Ki [2] | IC50 [3] | IC50 [4] | Ki [4] | IC50 [5] | IC50 [6] | IC50 [7] | IC50 [8]

N=C(N)N/N=C/c1c(Cl)cccc1Cl [GUANABENZ]
Not Active: IC50 [1] | IC50 [2] | Ki [2] | IC50 [3] | IC50 [4] | Ki [4] | IC50 [5] | IC50 [6] | IC50 [7] | IC50 [8]

C[C@]12CCC(=O)C=C1CC[C@@H]1[C@@H]2[C@@H](O)C[C@@]2(C)[C@H]1CC[C@]2(O)C(=O)CO [HYDROCORTISONE]
Not Active: IC50 [1] | IC50 [2] | Ki [2] | IC50 [3] | IC50 [4] | Ki [4] | IC50 [5] | IC50 [6] | IC50 [7] | IC50 [8]

NC[C@H]1O[C@H](O[C@H]2[C@H](O)[C@@H](O[C@H]3O[C@H](CO)[C@@H](O)[C@H](N)[C@H]3O)[C@H](N)C[C@@H]2N)[C@H](O)[C@@H](O)[C@@H]1O [KANAMYCIN]
Not Active: IC50 [1] | IC50 [2] | Ki [2] | IC50 [3] | IC50 [4] | Ki [4] | IC50 [5] | IC50 [6] | IC50 [7] | IC50 [8]
